Source: the kinase profiling compilation of Christmann-Franck et al. (2016)

Legend:
[1] = biological target: ACVR2B (human) (UniProt Q13705); assay: KINOMEscan competition binding; conditions: compound 10.0 µM
[2] = biological target: TAOK1 (human) (UniProt Q7L7X3); assay: KINOMEscan competition binding; conditions: compound 10.0 µM
[3] = biological target: MAP2K3 (human) (UniProt P46734); assay: KINOMEscan competition binding; conditions: compound 10.0 µM
[4] = biological target: GSK3A (human) (UniProt P49840); assay: KINOMEscan competition binding; conditions: compound 10.0 µM
[5] = biological target: ACVR2A (human) (UniProt P27037); assay: KINOMEscan competition binding; conditions: compound 10.0 µM
[6] = biological target: CDK7 (human) (UniProt P50613); assay: KINOMEscan competition binding; conditions: compound 10.0 µM
[7] = biological target: MYLK (human) (UniProt Q15746); assay: KINOMEscan competition binding; conditions: compound 10.0 µM
[8] = biological target: MAPK15 (human) (UniProt Q8TD08); assay: KINOMEscan competition binding; conditions: compound 10.0 µM
[9] = biological target: HIPK1 (human) (UniProt Q86Z02); assay: KINOMEscan competition binding; conditions: compound 10.0 µM
[10] = biological target: AAK1 (human) (UniProt Q2M2I8); assay: KINOMEscan competition binding; conditions: compound 10.0 µM
[11] = biological target: STK17A (human) (UniProt Q9UEE5); assay: KINOMEscan competition binding; conditions: compound 10.0 µM
[12] = biological target: TYK2 JH2 pseudokinase (human) (UniProt P29597); assay: KINOMEscan competition binding; conditions: compound 10.0 µM
[13] = biological target: RPS6KA4 KD2 (human) (UniProt O75676); assay: KINOMEscan competition binding; conditions: compound 10.0 µM
[14] = biological target: RIOK1 (human) (UniProt Q9BRS2); assay: KINOMEscan competition binding; conditions: compound 10.0 µM
[15] = biological target: PIK3CG (human) (UniProt P48736); assay: KINOMEscan competition binding; conditions: compound 10.0 µM
[16] = biological target: MKNK2 (human) (UniProt Q9HBH9); assay: KINOMEscan competition binding; conditions: compound 10.0 µM
[17] = biological target: DAPK2 (human) (UniProt Q9UIK4); assay: KINOMEscan competition binding; conditions: compound 10.0 µM
[18] = biological target: TTK (human) (UniProt P33981); assay: KINOMEscan competition binding; conditions: compound 10.0 µM
[19] = biological target: MYLK4 (human) (UniProt Q86YV6); assay: KINOMEscan competition binding; conditions: compound 10.0 µM
[20] = biological target: TAOK3 (human) (UniProt Q9H2K8); assay: KINOMEscan competition binding; conditions: compound 10.0 µM
[21] = biological target: GAK (human) (UniProt O14976); assay: KINOMEscan competition binding; conditions: compound 10.0 µM
[22] = biological target: PLK4 (human) (UniProt O00444); assay: KINOMEscan competition binding; conditions: compound 10.0 µM
[23] = biological target: MINK1 (human) (UniProt Q8N4C8); assay: KINOMEscan competition binding; conditions: compound 10.0 µM
[24] = biological target: CSNK2A2 (human) (UniProt P19784); assay: KINOMEscan competition binding; conditions: compound 10.0 µM
[25] = biological target: DYRK1B (human) (UniProt Q9Y463); assay: KINOMEscan competition binding; conditions: compound 10.0 µM
[26] = biological target: STK17B (human) (UniProt O94768); assay: KINOMEscan competition binding; conditions: compound 10.0 µM
[27] = biological target: PIM3 (human) (UniProt Q86V86); assay: KINOMEscan competition binding; conditions: compound 10.0 µM
[28] = biological target: TGFBR2 (human) (UniProt P37173); assay: KINOMEscan competition binding; conditions: compound 10.0 µM
[29] = biological target: DAPK3 (human) (UniProt O43293); assay: KINOMEscan competition binding; conditions: compound 10.0 µM
[30] = biological target: MAPK12 (human) (UniProt P53778); assay: KINOMEscan competition binding; conditions: compound 10.0 µM
[31] = biological target: DAPK1 (human) (UniProt P53355); assay: KINOMEscan competition binding; conditions: compound 10.0 µM
[32] = biological target: CDK16 (human) (UniProt Q00536); assay: KINOMEscan competition binding; conditions: compound 10.0 µM
[33] = biological target: PIM1 (human) (UniProt P11309); assay: KINOMEscan competition binding; conditions: compound 10.0 µM
[34] = biological target: PIM2 (human) (UniProt Q9P1W9); assay: KINOMEscan competition binding; conditions: compound 10.0 µM
[35] = biological target: PIM1 (human) (UniProt P11309); assay: SelectScreen, TR FRET
[36] = biological target: PIM2 (human) (UniProt Q9P1W9); assay: SelectScreen, TR FRET
[37] = biological target: CLK4 (human) (UniProt Q9HAZ1); assay: KINOMEscan competition binding; conditions: compound 10.0 µM
[38] = system: EIF2AK4 KD2 (human), Q9P2K8 [S808G]; assay: KINOMEscan competition binding; conditions: compound 10.0 µM
[39] = biological target: CSNK2A1 (human) (UniProt P68400); assay: KINOMEscan competition binding; conditions: compound 10.0 µM
[40] = biological target: ZAP70 (human) (UniProt P43403); assay: KINOMEscan competition binding; conditions: compound 10.0 µM

Sequence of PIM1 (human) (P11309 whole entry, looked up): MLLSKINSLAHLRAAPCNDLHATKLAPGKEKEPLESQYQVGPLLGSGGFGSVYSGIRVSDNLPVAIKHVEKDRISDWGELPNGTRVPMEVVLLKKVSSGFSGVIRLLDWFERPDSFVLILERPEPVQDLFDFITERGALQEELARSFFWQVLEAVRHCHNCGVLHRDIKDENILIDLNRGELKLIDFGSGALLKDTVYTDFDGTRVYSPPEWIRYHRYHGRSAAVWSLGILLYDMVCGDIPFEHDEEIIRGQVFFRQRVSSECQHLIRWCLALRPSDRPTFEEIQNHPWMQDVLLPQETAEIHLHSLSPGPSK
Sequence of PIM2 (human) (Q9P1W9 whole entry, looked up): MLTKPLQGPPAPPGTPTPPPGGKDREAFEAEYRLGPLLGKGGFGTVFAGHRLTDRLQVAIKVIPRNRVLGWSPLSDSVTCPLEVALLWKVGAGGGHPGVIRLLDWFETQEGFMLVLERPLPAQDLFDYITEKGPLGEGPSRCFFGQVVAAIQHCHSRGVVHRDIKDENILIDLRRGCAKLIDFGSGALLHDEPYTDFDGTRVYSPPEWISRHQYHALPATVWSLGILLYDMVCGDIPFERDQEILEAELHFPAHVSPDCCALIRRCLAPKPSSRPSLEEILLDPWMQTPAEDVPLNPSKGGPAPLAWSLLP
Sequence of TYK2 JH2 pseudokinase (human) (P29597 whole entry, looked up): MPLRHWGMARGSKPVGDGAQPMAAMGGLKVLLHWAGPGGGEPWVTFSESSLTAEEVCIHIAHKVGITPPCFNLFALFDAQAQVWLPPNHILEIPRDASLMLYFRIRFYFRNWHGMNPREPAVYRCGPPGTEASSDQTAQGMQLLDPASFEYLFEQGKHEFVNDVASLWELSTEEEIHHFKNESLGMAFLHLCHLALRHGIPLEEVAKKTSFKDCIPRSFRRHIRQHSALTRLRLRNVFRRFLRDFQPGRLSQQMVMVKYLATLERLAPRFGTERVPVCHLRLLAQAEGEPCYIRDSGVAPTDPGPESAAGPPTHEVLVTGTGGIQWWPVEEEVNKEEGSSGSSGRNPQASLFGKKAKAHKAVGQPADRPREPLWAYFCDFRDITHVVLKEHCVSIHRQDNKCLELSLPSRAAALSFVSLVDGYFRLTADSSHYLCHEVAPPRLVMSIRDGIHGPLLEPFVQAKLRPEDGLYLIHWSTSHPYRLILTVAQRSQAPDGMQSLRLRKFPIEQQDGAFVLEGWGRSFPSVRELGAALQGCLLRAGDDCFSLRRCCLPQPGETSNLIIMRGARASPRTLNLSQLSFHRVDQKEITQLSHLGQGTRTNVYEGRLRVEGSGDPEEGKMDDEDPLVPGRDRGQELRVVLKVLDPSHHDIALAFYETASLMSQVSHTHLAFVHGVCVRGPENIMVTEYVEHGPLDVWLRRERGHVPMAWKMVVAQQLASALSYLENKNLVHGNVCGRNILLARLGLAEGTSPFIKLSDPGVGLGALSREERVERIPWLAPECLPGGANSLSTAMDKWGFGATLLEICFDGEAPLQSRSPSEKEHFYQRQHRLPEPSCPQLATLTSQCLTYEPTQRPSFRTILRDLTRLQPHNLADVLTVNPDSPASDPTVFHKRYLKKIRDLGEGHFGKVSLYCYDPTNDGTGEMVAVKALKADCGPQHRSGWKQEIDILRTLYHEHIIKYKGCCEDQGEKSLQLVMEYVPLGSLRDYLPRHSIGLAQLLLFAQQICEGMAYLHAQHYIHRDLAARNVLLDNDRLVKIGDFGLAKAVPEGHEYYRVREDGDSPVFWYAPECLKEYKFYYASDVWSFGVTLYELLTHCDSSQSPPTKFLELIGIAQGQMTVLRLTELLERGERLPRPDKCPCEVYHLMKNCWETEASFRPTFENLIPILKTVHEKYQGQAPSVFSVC
Sequence of CDK7 (human) (P50613 whole entry, looked up): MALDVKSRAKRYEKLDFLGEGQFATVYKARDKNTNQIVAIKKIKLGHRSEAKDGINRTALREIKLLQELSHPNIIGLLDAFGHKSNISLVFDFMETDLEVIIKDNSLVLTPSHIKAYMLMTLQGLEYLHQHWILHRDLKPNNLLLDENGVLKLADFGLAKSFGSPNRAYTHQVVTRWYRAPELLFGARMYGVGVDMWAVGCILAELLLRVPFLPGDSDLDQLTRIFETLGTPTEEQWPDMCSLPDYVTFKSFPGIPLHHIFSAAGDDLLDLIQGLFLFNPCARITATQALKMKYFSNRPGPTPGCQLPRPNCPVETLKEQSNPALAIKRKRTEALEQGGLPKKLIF
Sequence of HIPK1 (human) (Q86Z02 whole entry, looked up): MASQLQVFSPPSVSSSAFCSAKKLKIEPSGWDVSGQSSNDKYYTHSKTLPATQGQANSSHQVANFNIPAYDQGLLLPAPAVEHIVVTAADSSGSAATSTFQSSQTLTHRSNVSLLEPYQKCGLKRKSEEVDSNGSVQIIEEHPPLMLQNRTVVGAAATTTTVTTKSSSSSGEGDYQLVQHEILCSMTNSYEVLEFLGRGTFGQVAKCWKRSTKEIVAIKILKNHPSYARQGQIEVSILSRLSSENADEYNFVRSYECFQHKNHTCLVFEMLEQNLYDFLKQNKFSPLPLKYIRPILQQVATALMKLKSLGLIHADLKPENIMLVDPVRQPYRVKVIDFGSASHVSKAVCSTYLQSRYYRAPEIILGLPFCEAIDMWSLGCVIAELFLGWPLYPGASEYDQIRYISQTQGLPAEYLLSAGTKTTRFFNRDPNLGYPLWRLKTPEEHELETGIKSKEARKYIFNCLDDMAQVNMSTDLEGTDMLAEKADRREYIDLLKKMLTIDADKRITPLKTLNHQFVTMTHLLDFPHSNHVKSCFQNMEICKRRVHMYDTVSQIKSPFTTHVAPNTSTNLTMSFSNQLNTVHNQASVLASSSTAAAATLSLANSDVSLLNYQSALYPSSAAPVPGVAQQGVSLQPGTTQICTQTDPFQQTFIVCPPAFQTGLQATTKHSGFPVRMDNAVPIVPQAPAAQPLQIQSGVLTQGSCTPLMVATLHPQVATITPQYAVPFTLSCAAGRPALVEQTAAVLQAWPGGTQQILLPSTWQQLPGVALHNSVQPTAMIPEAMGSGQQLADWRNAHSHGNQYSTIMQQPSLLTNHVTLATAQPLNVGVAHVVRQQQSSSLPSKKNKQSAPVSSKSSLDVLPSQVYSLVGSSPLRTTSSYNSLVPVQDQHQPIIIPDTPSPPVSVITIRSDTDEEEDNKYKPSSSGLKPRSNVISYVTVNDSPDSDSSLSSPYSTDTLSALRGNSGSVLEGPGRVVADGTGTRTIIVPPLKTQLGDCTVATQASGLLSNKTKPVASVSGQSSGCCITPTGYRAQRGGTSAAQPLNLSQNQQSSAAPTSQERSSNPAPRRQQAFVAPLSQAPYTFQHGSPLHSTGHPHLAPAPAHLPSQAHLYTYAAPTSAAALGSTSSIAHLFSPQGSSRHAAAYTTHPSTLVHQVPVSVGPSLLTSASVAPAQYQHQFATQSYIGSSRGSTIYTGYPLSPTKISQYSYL
Sequence of GSK3A (human) (P49840 whole entry, looked up): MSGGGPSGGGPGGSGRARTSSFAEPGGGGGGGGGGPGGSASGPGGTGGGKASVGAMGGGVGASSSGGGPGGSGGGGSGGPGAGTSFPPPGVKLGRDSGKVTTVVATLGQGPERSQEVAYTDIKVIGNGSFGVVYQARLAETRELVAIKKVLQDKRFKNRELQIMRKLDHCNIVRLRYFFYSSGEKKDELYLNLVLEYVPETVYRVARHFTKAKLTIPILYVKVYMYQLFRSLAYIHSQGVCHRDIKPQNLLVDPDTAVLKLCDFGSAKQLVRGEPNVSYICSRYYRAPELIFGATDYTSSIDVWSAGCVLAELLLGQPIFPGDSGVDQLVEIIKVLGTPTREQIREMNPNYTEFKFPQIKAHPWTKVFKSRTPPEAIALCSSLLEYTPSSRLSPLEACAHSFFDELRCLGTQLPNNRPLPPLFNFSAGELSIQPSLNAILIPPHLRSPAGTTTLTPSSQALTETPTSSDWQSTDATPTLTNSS
Sequence of STK17B (human) (O94768 whole entry, looked up): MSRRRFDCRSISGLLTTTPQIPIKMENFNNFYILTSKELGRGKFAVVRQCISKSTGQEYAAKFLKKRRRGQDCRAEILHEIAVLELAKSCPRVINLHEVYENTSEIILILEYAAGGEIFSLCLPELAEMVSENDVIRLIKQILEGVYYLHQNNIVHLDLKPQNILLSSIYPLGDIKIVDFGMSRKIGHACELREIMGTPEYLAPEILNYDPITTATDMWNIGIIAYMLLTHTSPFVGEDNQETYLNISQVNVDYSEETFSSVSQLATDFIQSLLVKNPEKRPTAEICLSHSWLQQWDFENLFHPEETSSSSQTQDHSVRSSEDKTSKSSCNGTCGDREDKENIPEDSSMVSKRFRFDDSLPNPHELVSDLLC
Sequence of STK17A (human) (Q9UEE5 whole entry, looked up): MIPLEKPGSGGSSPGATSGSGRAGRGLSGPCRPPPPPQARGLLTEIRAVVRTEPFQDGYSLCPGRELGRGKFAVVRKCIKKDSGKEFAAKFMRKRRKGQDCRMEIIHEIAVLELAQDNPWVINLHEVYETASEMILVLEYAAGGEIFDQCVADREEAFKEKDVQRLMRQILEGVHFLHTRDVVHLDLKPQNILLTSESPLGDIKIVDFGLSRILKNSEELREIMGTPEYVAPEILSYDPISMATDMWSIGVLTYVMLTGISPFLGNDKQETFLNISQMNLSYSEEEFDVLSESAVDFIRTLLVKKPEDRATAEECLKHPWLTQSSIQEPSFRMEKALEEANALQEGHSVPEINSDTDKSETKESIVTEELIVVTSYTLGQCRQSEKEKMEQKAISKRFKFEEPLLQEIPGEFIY
Sequence of DAPK2 (human) (Q9UIK4 whole entry, looked up): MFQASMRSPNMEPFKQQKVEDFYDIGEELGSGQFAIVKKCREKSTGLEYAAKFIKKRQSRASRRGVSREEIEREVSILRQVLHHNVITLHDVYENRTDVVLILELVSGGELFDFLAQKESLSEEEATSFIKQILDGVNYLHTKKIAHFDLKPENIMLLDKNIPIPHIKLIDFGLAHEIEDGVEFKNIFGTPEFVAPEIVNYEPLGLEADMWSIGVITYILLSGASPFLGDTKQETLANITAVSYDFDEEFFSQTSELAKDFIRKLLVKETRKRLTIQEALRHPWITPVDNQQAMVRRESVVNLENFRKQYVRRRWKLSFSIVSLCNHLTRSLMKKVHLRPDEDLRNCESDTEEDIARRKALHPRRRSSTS

Compound | kinase still bound, per cent of control [4] [%] | kinase still bound, per cent of control [6] [%] | kinase still bound, per cent of control [9] [%] | kinase still bound, per cent of control [11] [%] | kinase still bound, per cent of control [12] [%] | kinase still bound, per cent of control [15] [%] | kinase still bound, per cent of control [17] [%] | kinase still bound, per cent of control [22] [%] | kinase still bound, per cent of control [24] [%] | kinase still bound, per cent of control [26] [%] | kinase still bound, per cent of control [27] [%] | kinase still bound, per cent of control [28] [%] | kinase still bound, per cent of control [30] [%] | kinase still bound, per cent of control [33] [%] | kinase still bound, per cent of control [34] [%] | IC50 [35] [nM] | IC50 [36] [nM] | other results
CS(=O)(=O)Nc1ccc(-c2ccc(/C=C3\SC(=N)NC3=O)o2)cc1 | 10 | 1.3 | 0 | 0.65 | 21 | 25 | 9 | 0.3 | 28 | 2.8 | 5 | 2.8 | 12 | 2.9 | 0.9 | 204 | 274 | kinase still bound, per cent of control [1]: 14%; kinase still bound, per cent of control [2]: 3%; kinase still bound, per cent of control [3]: 7.8%; kinase still bound, per cent of control [5]: 7.5%; kinase still bound, per cent of control [7]: 12%; kinase still bound, per cent of control [8]: 0.65%; kinase still bound, per cent of control [10]: 34%; kinase still bound, per cent of control [13]: 13%; kinase still bound, per cent of control [14]: 21%; kinase still bound, per cent of control [16]: 33%; kinase still bound, per cent of control [18]: 23%; kinase still bound, per cent of control [19]: 8.2%; kinase still bound, per cent of control [20]: 16%; kinase still bound, per cent of control [21]: 22%; kinase still bound, per cent of control [23]: 30%; kinase still bound, per cent of control [25]: 24%; kinase still bound, per cent of control [29]: 17%; kinase still bound, per cent of control [31]: 8.7%; kinase still bound, per cent of control [32]: 0.3%
COc1cc(C(N)=O)ccc1-c1ccc(/C=C2\SC(=N)NC2=O)o1 | 28 | 29 | 5.2 | 0.4 | 5.1 | 28 | 34 | 22 | 31 | 1.6 | 5.6 | 14 | 27 | 3.4 | 0.95 | 861 | 762 | kinase still bound, per cent of control [37]: 17%; kinase still bound, per cent of control [38]: 29%; kinase still bound, per cent of control [39]: 18%; kinase still bound, per cent of control [40]: 29%
